Data from patent USRE37781E1, “Substituted cyclic carbonyls and derivatives thereof useful as retroviral protease inhibitors” (DuPont Pharmaceuticals Company, priority 1991, dated 2002).
pKi: −log10 of the molar value. ≈ marks a conversion by molar mass, not a printed value. Read-outs that look alike come from different tables or passages of the source.

Assays:
[1] = tested on: HIV-1 (RF) in MT-2 cells; experiment: microbe, parasite or virus in culture; type: cell-based
Experimental: DNA Plasmids and in vitro RNA transcripts:
Plasmid pDAB 72 containing both gag and pol sequences of BH10 (bp 113-1816) cloned into PTZ 19R was prepared according to Erickson-Viitanen et al. AIDS Research and Human Retroviruses 1989, 5, 577. The plasmid was linearized with Bam HI prior to the generation of in vitro RNA transcripts using the Riboprobe Gemini system II kit (Promega) with T7 RNA polymerase. Synthesized RNA was purified by treatment with RNase free DNAse (Promega), phenol-chloroform extraction, and ethanol precipitation. RNA transcripts were dissolved in water, and stored at −70° C. The concentration of RNA was determined from the A260.
Biotinylated capture probes were purified by HPLC after synthesis on an Applied Biosystems (Foster City, Calif.) DNA synthesizer by addition of biotin to the 5′ terminal end of the oligonucleotide, using the biotin-phosphoramidite reagent of Cocuzza, Tet. Lett. 1989, 30, 6287. The gag biotinylated capture probe (5-biotin-[…] 3′) was complementary to nucleotides 889-912 of HXB2 and the pol biotinylated capture probe (5′-biotin-[…] 3′) was complementary to nucleotides 2374-2395 of HXB2. Alkaline phosphatase conjugated oligonucleotides used as reporter probes were prepared by Syngene (San Diego, Calif.). The pol reporter probe (5′ […] 3′) was complementary to nucleotides 2403-2425 of HXB2. The gag reporter probe (5′ […] 3′) was complementary to nucleotides 950-973 of HXB2. All nucleotide positions are those of the GenBank Genetic Sequence Data Bank as accessed through the Genetics Computer Group Sequence Analysis Software Package (Devereau Nucleic Acids Research 1984, 12, 387). The reporter probes were prepared as 0.5μM stocks in 2× SSC (0.3M NaCl, 0.03M sodium citrate), 0.05M Tris pH 8.8, 1 mg/mL BSA. The biotinylated capture probes were prepared as 10 μM stocks in water.
Streptavidin coated plates:
Nunc-immunomodule microtiter plate strips were coated by addition of 200 μL of streptavidin (30 ug/mL, Scripps, La Jolla, Calif.) in freshly prepared 10 mM sodium carbonate (pH 9.6). Plates were incubated overnight at 4° C. Streptavidin solution was aspirated from the wells and a blocking buffer composed of phosphate buffered saline (PBS), 20 mg/mL bovine serum albumin (crystalline, nuclease and protease free, Calbiochem) and 100 mg/mL lactose (Sigma) was added to the plates for 3 hrs at room temperature. Blocking buffer was removed from the wells, which were allowed to dry overnight at room temperature and subsequently stored at 4° C. in zip lock bags with desiccant. For the majority of the compound evaluation experiments, streptavidin coated plates were obtained from Du Pont Biotechnology Systems (Boston, Mass.).
MT-2, CEM, and H9 cells were maintained in RPMI 1640 supplemented with 5% fetal calf serum (FCS), 2 mM L-glutamine and 50 μg/mL gentamycin, all from Gibco. Laboratory strains of HIV-1 (RF, MN and IIIB) were propagated in H9 cells in the same medium. Virus stocks were prepared approximately 1 month after acute infection of H9 cells by clarification of the tissue culture medium and storage of aliquots at −70° C. […] Each aliquot of virus stock used for infection was thawed only once. In some cases, infected H9 cells were shifted to Dulbecco's modified Eagle's medium 3-10 days before collection of virus in order to generate virus stocks in medium with low biotin content. Clinical isolates of HIV that had been passaged once in MT-2 cells were used to infect fresh MT-2 cells in RPMI medium. Three days after infection, cells were pelleted, resuspended and culture continued in Dulbecco's modified Eagle's medium as above. Virus stocks of clinical isolates were prepaid 10-15 days after infection when cytopathic effects were apparent in the culture.

[2] = target: single-chain tethered dimer of HIV protease (Human immunodeficiency virus 1, UniProt P04585); experiment: biochemical; type: biochemical; design: fused on or other part: A second copy of the same protease unit is joined to the first by a short peptide tether, giving one polypeptide
[3] = Table 2d, HIV protease inhibition, HPLC method, read-out: HPLC K1
[4] = Human immunodeficiency virus 1, MT2, 48 h, Table 2d, class symbols, read-out: IC90
[5] = read-out: HPLC K1, Table 2d, class symbols
[6] = Human immunodeficiency virus 1, MT2, 48 h, Table 2d, HIV RNA assay, read-out: IC90
[7] = read-out: HPLC K1, Table 2d, HIV protease inhibition, HPLC method

COC(=O)c1ccc(CN2C(Cc3ccc(F)cc3)C(O)C(O)C(Cc3ccc(F)cc3)N(Cc3ccc(C(=O)OC)cc3)S2(=O)=O)cc1 (stereo not drawn) [31B]
IC90 ([1]; Table 2u): +++ (+++=<10 μg/mL) | IC90 ([1]; Table 2u (second printing)): +++ (+++=<10 μg/mL) | pKi ([2]; Table 2u (second printing), HPLC method, read-out: K1 (HPLC)): 6.00 to 8.00 | pKi ([2]; Table 2u, HPLC method, read-out: K1 (HPLC)): 6.00 to 8.00

O=C1N(Cc2ccc3[nH]cnc3c2)C(Cc2ccccc2)C(O)C(O)C(Cc2ccccc2)N1Cc1ccc2[nH]cnc2c1 (stereo not drawn) [15CS]
IC90 ([1]; Table 2d, HIV RNA assay): ++ (++=10 to 100 μg/mL) | pKi [2, 3]: 6.00 to 8.00

O=C1N(CCCCCO)C(Cc2ccccc2)C(O)C(O)C(Cc2ccccc2)N1Cc1cccc(O)c1 (stereo not drawn) [Example 15VR]
IC90 [1, 4]: < 10 µg/mL | pKi [2, 5]: > 8.00

O=C1N(Cc2cccc(OCc3ccccc3)c2)C(Cc2ccccc2)C(O)C(O)C(Cc2ccccc2)N1Cc1cccc([N+](=O)[O-])c1 (stereo not drawn) [11P]
IC90 [1, 4]: < 10 µg/mL | pKi [2, 5]: > 8.00

CCNCc1cccc(C(=O)OCc2ccc(CN3C(=O)N(Cc4ccc(COC(=O)c5cccc(CNCC)c5)cc4)[C@H](Cc4ccccc4)[C@H](O)[C@@H](O)[C@H]3Cc3ccccc3)cc2)c1.Cl [29U]
IC90 ([1]; Table 2s): +++ (+++=<10 μg/mL) | pKi ([2]; Table 2s, read-out: Ki (HPLC)): < 6.00

CN1CCN(Cc2cccc(C(=O)OCc3ccc(CN4C(=O)N(Cc5ccc(COC(=O)c6cccc(CN7CCN(C)CC7)c6)cc5)[C@H](Cc5ccccc5)[C@H](O)[C@@H](O)[C@H]4Cc4ccccc4)cc3)c2)CC1.Cl.Cl [29Y]
IC90 ([1]; Table 2s): +++ (+++=<10 μg/mL) | pKi ([2]; Table 2s, read-out: Ki (HPLC)): 6.00 to 8.00

CCC(=NO)c1cccc(CN2C(=O)N(Cc3cccc(C(CC)=NO)c3)C(Cc3ccccc3)C(O)C(O)C2Cc2ccccc2)c1 (stereo not drawn) [Example 15XP]
IC90 [1, 6]: < 10 µg/mL | pKi [2, 7]: > 8.00

CCNC(=O)c1cccc(CN2C(=O)N(Cc3cccc(CO)c3)C(Cc3ccccc3)C(O)C(O)C2Cc2ccccc2)c1 (stereo not drawn) [15WK]
IC90 [1, 4]: < 10 µg/mL | pKi [2, 5]: > 8.00

O=S1(=O)N(Cc2ccc(O)cc2)C(Cc2ccccc2)C(O)C(O)C(Cc2ccccc2)N1Cc1ccc(O)cc1 (stereo not drawn) [23K]
IC90 ([1]; Table 2m): +++ (+++=<10 μg/mL) | pKi ([2]; Table 2m, read-out: HPLC Ki): > 8.00

O=C1N(Cc2ccccc2)C(Cc2ccccc2)C(O)C(O)C(Cc2ccccc2)N1CC1CC1CO (stereo not drawn) [Example 12M]
IC90 [1, 4]: < 10 µg/mL | pKi [2, 5]: > 8.00

O=C1N(Cc2ccc(CO)cc2)C(Cc2ccccc2)C(O)C(O)C(Cc2ccccc2)N1Cc1ccc(CO)cc1 (stereo not drawn) [Example 13M]
IC90 [1, 4]: < 10 µg/mL | pKi [2, 5]: > 8.00

O=C1N(CCCCCO)C(Cc2ccccc2)C(O)C(O)C(Cc2ccccc2)N1Cc1ccccc1 (stereo not drawn) [Example 15VI]
IC90 [1, 4]: < 10 µg/mL | pKi [2, 5]: > 8.00

CC(O)CCCCN1C(=O)N(CCCCC(C)O)C(Cc2ccccc2)C(O)C(O)C1Cc1ccccc1 (stereo not drawn) [Example 15VZ]
IC90 [1, 4]: < 10 µg/mL | pKi [2, 5]: > 8.00

O=C1N(Cc2cccnc2Cl)C(Cc2ccccc2)C(O)C(O)C(Cc2ccccc2)N1Cc1cccnc1Cl (stereo not drawn) [Example 14A]
IC90 [1, 4]: 10 to 100 µg/mL (≈ 17.3 to 173 µM) | pKi [2, 5]: 6.00 to 8.00

O=C1N(Cc2cccc(-c3cn[nH]c3)c2)C(Cc2ccccc2)C(O)C(O)C(Cc2ccccc2)N1Cc1cccc(-c2cn[nH]c2)c1 (stereo not drawn) [Example 15BN]
IC90 [1, 6]: < 10 µg/mL | pKi [2, 7]: > 8.00

NC(=O)c1cccc(CN2C(=O)N(Cc3cccc(C(N)=O)c3)C(Cc3ccc(F)cc3)C(O)C(O)C2Cc2ccc(F)cc2)c1 (stereo not drawn) [20L]
IC90 ([1]; Table 2i): +++ (+++=<10 μg/mL) | pKi ([2]; Table 2i, read-out: HPLC Ki): > 8.00

CCCNC(=NO)c1cccc(CN2C(=O)N(Cc3cccc(C(=NO)NCCC)c3)C(Cc3ccccc3)C(O)C(O)C2Cc2ccccc2)c1 (stereo not drawn) [15BA]
IC90 ([1]; Table 2d, HIV RNA assay): +++ (+++=<10 μg/mL) | pKi [2, 3]: > 8.00
